Values quoted from earlier work as cited in patent US20100143460A1, “SOLID DOSAGE FORMS COMPRISING ALISKIREN AND PHARMACEUTICALLY ACCEPTABLE SALTS THEREOF” (KRKA, TOVARNA ZDRAVIL, D.D., NOVO MESTO, priority 2007, published 2010).

Details: described in EP-A-1 517 682

COCCCOc1cc(C[C@@H](C[C@H](N)[C@@H](O)C[C@H](C(=O)NCC(C)(C)C(N)=O)C(C)C)C(C)C)ccc1OC [aliskiren]
solubility in water: very readily soluble in water
